Results as given in US6537522B1, “Neuroprobes for mapping monoamine reuptake sites” (Amersham PLC, priority 1992, dated 2003).
Read-outs that look alike come from different tables or passages of the source.

Tests used:
[1] = target: T1, NET (norepinephrine transporter) (Rattus norvegicus, UniProt Q63380); assay: NET assay, [3H]nisoxetine binding, rat frontoparietal cerebral cortex membranes
T1 construct: or frontoparietal cerebral cortex (for 5-HTT and NET); from tissue; host or cells: rat brain frontoparietal cerebral cortex, crude membrane fraction
Procedure: (§1) N-phthalimidopropyl-β-CIT (see Example 10) was analyzed as follows. Stock solutions (1 mM) of test agents were made in 95% ethanol/DMSO (1/1, v/v) and stored at −5° C. until used by diluting in a large excess of each assay buffer. Agents are tested at six concentrations in duplicate, with a crude membrane fraction of homogenates of rat brain corpus striatum (for DAT assays) in Tris-citrate buffer (pH 7.4) containing Na^+ ([…]) and Mg^2+ (4 mM) or frontoparietal cerebral cortex (for 5-HTT and NET) in 50 mM Tris-HCl buffer (pH 7.4) containing Na^+ ([…]) and K^+ (5 mM) following methods reported by Neumeyer et al., J. Med. Chem. 37, 1558-1561 (1991), the whole of which is incorporated by reference herein.

[2] = target: T2, DAT (dopamine transporter) (Rattus norvegicus, UniProt P23977); assay: DAT assay, [3H]GBR-12935 binding, rat brain corpus striatum membranes; conditions: for selectivity: DAT vs 5-HTT / selectivity: DAT vs NET: ratio of Ki values
T2 construct: a crude membrane fraction of homogenates of rat brain corpus striatum (for DAT assays); from tissue; host or cells: rat brain corpus striatum, crude membrane fraction
Procedure: as §1

5-HTT (5-HT transporter) = target: T3, 5-HTT (5-HT transporter) (Rattus norvegicus, UniProt P31652); assay: 5-HTT assay, [3H]paroxetine binding, rat frontoparietal cerebral cortex membranes
T3 construct: or frontoparietal cerebral cortex (for 5-HTT and NET); from tissue; host or cells: rat brain frontoparietal cerebral cortex, crude membrane fraction
Procedure: as §1

[3] = test system: dopamine and serotonin reuptake sites; conditions: 3 μmol/kg IV at 200 min pi, during 100 min after injection
Procedure: With reference to FIG. 4, five SPECT (single photon emission computer tomography) experiments were performed with four female baboons (Papio anubis, 10-12 kg) under isoflurane anesthesia. […] Serial 1-2 min images were reconstructed assuming uniform attenuation equal to that of water in an ellipse drawn around the brain. Data were decay corrected to time of injection.
Activity is expressed in arbitrary units known from phantom studies to be linear with radioactive concentrations.

[4] = test system: dopamine and serotonin reuptake sites; assay: SPECT regional brain activity after i.v. [123I]-β-CIT (five experiments); type: in vivo, baboon (Papio anubis)
Excerpt: Data were decay corrected to time of injection.

[5] = whole body scanning, thyroid uptake (in vivo deiodination); conditions: indicative of slow in vivo deiodination
Excerpt: The majority of striatal activity was associated with dopamine reuptake sites, and the majority of midbrain activity was associated with serotonin reuptake sites, which is consistent with the densities of these monoamine transporters measured in postmortem primate brains. Brain washout of activity was relatively slow, in part because of the high affinities of β-CIT for the monoamine transporters.

[6] = test system: dopamine and serotonin reuptake sites; assay: SPECT regional brain activity after injection of [123I]-β-CIT (six experiments); type: in vivo, baboon (Papio anubis)
Procedure: The final product was formulated in 6 ml sterile saline containing 5-10% ethanol.
Data were decay-corrected to the time of injection.
The highest activities were found in the striatal region and reached peak levels at 179±9 min (n=6) post injection (p.i.) (FIG. 2). Striatal activity was monitored in two animals for an additional 190 and […] post peak values.

[7] = test system: dopamine and serotonin reuptake sites; conditions: within 60-120 min
Procedure: Six SPECT experiments were performed in four female baboons (10 kg Papio anubis) under isoflurane anesthesia. […] Data were decay-corrected to the time of injection.

serotonin reuptake sites = target: T4, serotonin reuptake sites (Rattus norvegicus, UniProt P31652); assay: displacement of [3H]paroxetine binding in rat cortical membrane homogenates; conditions: for displacement of [3H]paroxetine Hill slope (nH): mean ± SEM (n)
T4 construct: homogenates prepared from rat cortical membranes; from tissue; host or cells: rat cortical membranes

dopamine reuptake sites = dopamine reuptake sites (Papio anubis, UniProt A0A096MN61); assay: displacement of [3H]CFT binding in primate striatum tissue homogenates; set-up: species or system baboon; conditions: mean ± SEM (n)
Excerpt: Values represent means±SEM (of n experiments).

[8] = at time of peak striatal uptake, n=6
[9] = 0.4 μmol/kg i.v. at 180 min p.i.

Chain of dopamine reuptake sites (A0A096MN61 1-620): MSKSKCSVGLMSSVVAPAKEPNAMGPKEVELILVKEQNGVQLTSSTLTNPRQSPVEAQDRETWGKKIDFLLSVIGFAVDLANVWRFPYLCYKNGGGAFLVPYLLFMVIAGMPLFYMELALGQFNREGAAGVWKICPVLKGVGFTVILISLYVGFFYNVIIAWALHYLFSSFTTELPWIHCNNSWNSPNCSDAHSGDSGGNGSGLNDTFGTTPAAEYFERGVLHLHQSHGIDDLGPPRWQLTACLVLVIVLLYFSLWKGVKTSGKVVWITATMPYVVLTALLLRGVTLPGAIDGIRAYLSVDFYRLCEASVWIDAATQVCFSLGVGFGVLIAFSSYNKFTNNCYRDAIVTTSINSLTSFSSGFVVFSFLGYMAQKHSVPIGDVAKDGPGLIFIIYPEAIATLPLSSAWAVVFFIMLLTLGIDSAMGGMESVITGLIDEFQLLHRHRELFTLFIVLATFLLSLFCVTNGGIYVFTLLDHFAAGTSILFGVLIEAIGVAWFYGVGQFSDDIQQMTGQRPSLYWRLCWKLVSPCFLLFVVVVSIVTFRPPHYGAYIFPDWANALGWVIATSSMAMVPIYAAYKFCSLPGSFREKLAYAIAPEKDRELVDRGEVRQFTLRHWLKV
T2 sequence (P23977 whole entry): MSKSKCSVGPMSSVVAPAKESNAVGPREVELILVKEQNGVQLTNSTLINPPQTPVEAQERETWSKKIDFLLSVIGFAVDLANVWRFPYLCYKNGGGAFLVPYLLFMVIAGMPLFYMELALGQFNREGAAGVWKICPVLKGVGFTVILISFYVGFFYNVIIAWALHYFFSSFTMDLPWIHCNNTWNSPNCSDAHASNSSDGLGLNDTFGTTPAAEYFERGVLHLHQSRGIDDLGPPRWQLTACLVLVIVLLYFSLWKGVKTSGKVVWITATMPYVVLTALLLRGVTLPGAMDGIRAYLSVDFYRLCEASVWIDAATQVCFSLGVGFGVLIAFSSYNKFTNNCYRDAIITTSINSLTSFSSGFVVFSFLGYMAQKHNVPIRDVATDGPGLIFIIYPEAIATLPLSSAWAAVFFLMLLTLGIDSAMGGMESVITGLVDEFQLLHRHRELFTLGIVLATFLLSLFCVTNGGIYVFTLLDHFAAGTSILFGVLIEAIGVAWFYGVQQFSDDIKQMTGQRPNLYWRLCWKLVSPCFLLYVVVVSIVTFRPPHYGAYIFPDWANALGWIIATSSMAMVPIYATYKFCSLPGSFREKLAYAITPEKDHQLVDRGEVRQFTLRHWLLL
T1 sequence (Q63380 1-617): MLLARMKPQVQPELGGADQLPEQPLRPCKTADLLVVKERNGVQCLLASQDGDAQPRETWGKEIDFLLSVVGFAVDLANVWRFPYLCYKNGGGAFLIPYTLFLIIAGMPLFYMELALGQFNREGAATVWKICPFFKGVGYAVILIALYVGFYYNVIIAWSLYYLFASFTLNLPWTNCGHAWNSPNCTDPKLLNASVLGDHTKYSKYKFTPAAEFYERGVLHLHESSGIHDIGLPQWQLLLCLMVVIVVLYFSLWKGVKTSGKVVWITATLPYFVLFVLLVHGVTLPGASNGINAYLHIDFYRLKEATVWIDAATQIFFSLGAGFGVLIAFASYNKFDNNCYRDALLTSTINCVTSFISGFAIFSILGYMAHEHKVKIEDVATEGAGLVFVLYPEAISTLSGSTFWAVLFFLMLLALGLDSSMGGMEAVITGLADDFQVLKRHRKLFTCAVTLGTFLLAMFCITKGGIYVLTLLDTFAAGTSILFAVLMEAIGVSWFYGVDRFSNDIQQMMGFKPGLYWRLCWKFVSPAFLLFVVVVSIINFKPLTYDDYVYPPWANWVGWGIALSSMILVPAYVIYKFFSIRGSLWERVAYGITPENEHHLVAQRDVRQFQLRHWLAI
T3 sequence (P31652 whole entry): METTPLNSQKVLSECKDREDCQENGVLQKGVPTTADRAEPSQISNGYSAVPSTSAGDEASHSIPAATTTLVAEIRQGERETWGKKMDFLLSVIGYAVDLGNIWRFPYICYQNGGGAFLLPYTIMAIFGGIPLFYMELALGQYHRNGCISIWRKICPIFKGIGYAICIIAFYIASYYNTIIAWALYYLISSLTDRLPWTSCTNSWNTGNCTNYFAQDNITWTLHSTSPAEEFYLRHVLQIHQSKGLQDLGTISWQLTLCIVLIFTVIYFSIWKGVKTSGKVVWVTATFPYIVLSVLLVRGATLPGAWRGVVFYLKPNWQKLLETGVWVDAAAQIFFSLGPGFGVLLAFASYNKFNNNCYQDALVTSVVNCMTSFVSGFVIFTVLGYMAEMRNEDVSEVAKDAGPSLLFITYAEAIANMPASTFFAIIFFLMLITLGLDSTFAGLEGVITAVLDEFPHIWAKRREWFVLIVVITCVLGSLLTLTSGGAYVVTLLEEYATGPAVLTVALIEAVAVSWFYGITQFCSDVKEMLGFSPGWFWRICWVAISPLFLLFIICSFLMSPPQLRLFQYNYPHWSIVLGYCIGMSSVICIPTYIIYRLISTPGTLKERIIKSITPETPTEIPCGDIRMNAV
T4 sequence (P31652 whole entry): as above

COC(=O)[C@H]1[C@@H](c2ccc(I)cc2)C[C@@H]2CC[C@H]1N2CCCN1C(=O)c2ccccc2C1=O [Example 10, N-phthalimidopropyl-β-CIT]
Ki ([1]; [3H]nisoxetine 0.8 nM, rat cerebral cortex, 180 min 4° C., read-out: affinity (Ki) NET): 73.7 ± 11.6 nM | Ki ([2]; [3H]GBR-12935 0.4 nM, rat corpus striatum, 45 min 4° C., read-out: affinity (Ki) DAT): 9.1 ± 1.1 nM | selectivity: DAT vs 5-HTT [2]: 0.065 | selectivity: DAT vs NET [2]: 8.10 | Ki (5-HTT (5-HT transporter); [3H]paroxetine 0.2 nM, rat cerebral cortex, 60 min 20° C., read-out: affinity (Ki) 5-HTT): 0.59 ± 0.07 nM

CNC1CC(c2ccc(Cl)c(Cl)c2)c2ccccc21 (stereo not drawn) [Lu 19-005, indatraline]
decrease of striatal [123I]-β-CIT activity [3]: 65%

COC(=O)C1C(c2ccc([123I])cc2)CC2CCC1N2C (stereo not drawn) [[^123I]-β-CIT, [^123I]-2-β-Carbomethoxy-3-β-(4-iodophenyl)tropane]
striatal to cerebellar ratio ([4]; at time of striatal peak): 9.8±1.6 | decrease of striatal activity from striatal peak to end of experiment ([4]; control animal followed an additional 200 min): 0% | decrease of striatal activity from striatal peak to end of experiment ([4]; control animal followed an additional 260 min): 12% | time of peak midbrain levels pi ([4]; midbrain, n=5): 43 ± 5 min | time of peak striatal uptake postinjection ([4]; striatal region, mean ± SEM): 154 ± 19 min | thyroid uptake [5]: low | ratio of regional brain activity, cerebellum (striatum 100%) [6, 8]: 10.0±1.5% | ratio of regional brain activity, frontal lobe (striatum 100%) [6, 8]: 10.3±1.0% | ratio of regional brain activity, hypothalamus (striatum 100%) [6, 8]: 38.1±5.2% | ratio of regional brain activity, occipital lobe (striatum 100%) [6, 8]: 13.5±0.8% | ratio of regional brain activity, temporo-parietal lobes (striatum 100%) [6, 8]: 14.3±2.0% | washout of midbrain activity t½ ([6]; midbrain, n=3): 4.9 ± 0.983 h | time of peak midbrain activity post injection ([6]; midbrain, n=6): 45 ± 16 min | striatal activity after peak ([6]; one animal, remaining 190 min of the experiment): virtually unchanged | washout of striatal activity t½ ([6]; second animal, exponential fit, r=0.92): 27 h | time of peak striatal activity post injection ([6]; striatum, n=6, mean ± S.E.M.): 179 ± 9 min

COC(=O)[C@H]1[C@@H](c2ccc(F)cc2)C[C@@H]2CC[C@H]1N2C [compound 2, 2β-carbomethoxy-3β-(4-fluorophenyl)tropane, reference compound]
Ki [1]: 635 ± 110 nM | displacement of midbrain [123I]-β-CIT levels [7, 9]: 72% | displacement of striatal [123I]-β-CIT levels [7, 9]: 57% | cumulative displacement of midbrain [123I]-β-CIT levels ([7]; 2.0 μmol/kg at 298 min p.i.): 91% | cumulative displacement of striatal [123I]-β-CIT levels ([7]; 2.0 μmol/kg at 298 min p.i.): 83% | IC50 (serotonin reuptake sites): 479 ± 59 nM | displacement of [3H]paroxetine Hill slope (nH) (serotonin reuptake sites; rat cortical membranes): 1.34 ± 0.22 (3) | displacement of [3H]CFT Hill slope (nH) (dopamine reuptake sites): 0.75 ± 0.01 (3) | Ki (5-HTT (5-HT transporter)): 181 ± 21 nM

COC(=O)[C@H]1[C@@H](c2ccc(I)cc2)C[C@@H]2CC[C@H]1N2C [compound 3a, 2β-carbomethoxy-3β-(4-iodophenyl)tropane]
Ki [1]: 2.8 ± 0.4 nM | IC50 (serotonin reuptake sites): 3.78 ± 0.53 nM | displacement of [3H]paroxetine Hill slope (nH) (serotonin reuptake sites; rat cortical membranes): 0.82 ± 0.08 (6) | Ki [2]: 1.4 ± 0.2 nM | selectivity: DAT vs 5-HTT [2]: 0.320 | selectivity: DAT vs NET [2]: 2.00 | displacement of [3H]CFT Hill slope (nH) (dopamine reuptake sites): 0.79 ± 0.04 (3) | Ki (5-HTT (5-HT transporter)): 0.46 ± 0.06 nM

COC(=O)C1C(c2ccc(I)cc2)CC2CCC1N2C (stereo not drawn) [compound 3b, 2-α-Carbomethoxy-3-β-iodophenyltropane]
displacement of [3H]paroxetine Hill slope (nH) (serotonin reuptake sites; rat cortical membranes): 0.73 ± 0.04 (2) | IC50 (serotonin reuptake sites; rat cortical membranes, mean ± SEM, read-out: displacement of [3H]paroxetine IC50): 210 ± 86 nM | displacement of [3H]CFT Hill slope (nH) (dopamine reuptake sites): 0.70 ± 0.07 (2)
